Experimental data published in ChEMBL document CHEMBL4507324 (2021).

What was measured:
Conditions in all cases: Compound concentration 100.0 nM
[1] = molecular target: Serine/threonine-protein kinase STK11 (Homo sapiens) (UniProt Q15831)
[2] = molecular target: Phosphatidylinositol 4-phosphate 5-kinase type-1 gamma (Homo sapiens) (UniProt O60331)
[3] = molecular target: Cyclin-dependent kinase-like 2 (Homo sapiens) (UniProt Q92772)
[4] = molecular target: Cyclin-dependent kinase 11B (Homo sapiens) (UniProt P21127)
[5] = molecular target: Discoidin domain-containing receptor 2 (Homo sapiens) (UniProt Q16832)
[6] = molecular target: MAP kinase-activated protein kinase 5 (Homo sapiens) (UniProt Q8IW41)
[7] = molecular target: Calcium/calmodulin-dependent protein kinase type II subunit beta (Homo sapiens) (UniProt Q13554)
[8] = molecular target: Serine/threonine-protein kinase WNK2 (Homo sapiens) (UniProt Q9Y3S1)
[9] = tested on: Hepatocyte growth factor receptor (Homo sapiens), P08581 [Y1235D]
[10] = molecular target: STE20/SPS1-related proline-alanine-rich protein kinase (Homo sapiens) (UniProt Q9UEW8)
[11] = molecular target: Tyrosine-protein kinase FRK (Homo sapiens) (UniProt P42685)
[12] = molecular target: Serine/threonine-protein kinase pim-2 (Homo sapiens) (UniProt Q9P1W9)
[13] = molecular target: Mitogen-activated protein kinase 3 (Homo sapiens) (UniProt P27361)
[14] = molecular target: Serine/threonine-protein kinase D2 (Homo sapiens) (UniProt Q9BZL6)
[15] = tested on: Tyrosine-protein kinase ABL1 (Homo sapiens), P00519 [E255K]
[16] = tested on: ALK tyrosine kinase receptor (Homo sapiens), Q9UM73 [C1156Y]
[17] = molecular target: Protein kinase C epsilon type (Homo sapiens) (UniProt Q02156)
[18] = molecular target: Mitogen-activated protein kinase kinase kinase 3 (Homo sapiens) (UniProt Q99759)
[19] = molecular target: cAMP-dependent protein kinase catalytic subunit PRKX (Homo sapiens) (UniProt P51817)
[20] = molecular target: Phosphatidylinositol 5-phosphate 4-kinase type-2 gamma (Homo sapiens) (UniProt Q8TBX8)
[21] = tested on: ALK tyrosine kinase receptor (Homo sapiens), Q9UM73 [L1196M]
[22] = molecular target: Casein kinase I isoform delta (Homo sapiens) (UniProt P48730)
[23] = molecular target: Fibroblast growth factor receptor 1 (Homo sapiens) (UniProt P11362)
[24] = tested on: Phosphatidylinositol 4,5-bisphosphate 3-kinase catalytic subunit alpha isoform (Homo sapiens), P42336 [E545A]
[25] = molecular target: Dual serine/threonine and tyrosine protein kinase (Homo sapiens) (UniProt Q6XUX3)
[26] = molecular target: Tyrosine-protein kinase CSK (Homo sapiens) (UniProt P41240)
[27] = tested on: Epidermal growth factor receptor (Homo sapiens), P00533 [G719C]
[28] = molecular target: Dual specificity protein kinase CLK4 (Homo sapiens) (UniProt Q9HAZ1)
[29] = molecular target: Serine/threonine-protein kinase PLK2 (Homo sapiens) (UniProt Q9NYY3)
[30] = tested on: Tyrosine-protein kinase ABL1 (Homo sapiens), P00519 [Q252H]
[31] = molecular target: Mast/stem cell growth factor receptor Kit (Homo sapiens) (UniProt P10721)
[32] = molecular target: Myotonin-protein kinase (Homo sapiens) (UniProt Q09013)
[33] = molecular target: Receptor tyrosine-protein kinase erbB-3 (Homo sapiens) (UniProt P21860)
[34] = tested on: Receptor-type tyrosine-protein kinase FLT3 (Homo sapiens), P36888 [R834Q]
[35] = molecular target: Serine/threonine-protein kinase 26 (Homo sapiens) (UniProt Q9P289)
[36] = molecular target: Serine/threonine-protein kinase B-raf (Homo sapiens, UniProt P15056)
[37] = molecular target: Cyclin-G-associated kinase (Homo sapiens) (UniProt O14976)
[38] = molecular target: Cyclin-dependent kinase 16 (Homo sapiens) (UniProt Q00536)
[39] = molecular target: Mitogen-activated protein kinase 13 (Homo sapiens) (UniProt O15264)
[40] = molecular target: Platelet-derived growth factor receptor alpha (Homo sapiens) (UniProt P16234)
[41] = molecular target: Calcium/calmodulin-dependent protein kinase type 1 (Homo sapiens) (UniProt Q14012)
[42] = tested on: Receptor-type tyrosine-protein kinase FLT3 (Homo sapiens), P36888 [UNDEFINED MUTATION]
[43] = molecular target: Casein kinase I isoform gamma-3 (Homo sapiens) (UniProt Q9Y6M4)
[44] = molecular target: Serine/threonine-protein kinase MRCK beta (Homo sapiens) (UniProt Q9Y5S2)
[45] = molecular target: Cyclin-dependent kinase 17 (Homo sapiens) (UniProt Q00537)

Sequence of Cyclin-dependent kinase 16 (Homo sapiens) (Q00536 whole entry): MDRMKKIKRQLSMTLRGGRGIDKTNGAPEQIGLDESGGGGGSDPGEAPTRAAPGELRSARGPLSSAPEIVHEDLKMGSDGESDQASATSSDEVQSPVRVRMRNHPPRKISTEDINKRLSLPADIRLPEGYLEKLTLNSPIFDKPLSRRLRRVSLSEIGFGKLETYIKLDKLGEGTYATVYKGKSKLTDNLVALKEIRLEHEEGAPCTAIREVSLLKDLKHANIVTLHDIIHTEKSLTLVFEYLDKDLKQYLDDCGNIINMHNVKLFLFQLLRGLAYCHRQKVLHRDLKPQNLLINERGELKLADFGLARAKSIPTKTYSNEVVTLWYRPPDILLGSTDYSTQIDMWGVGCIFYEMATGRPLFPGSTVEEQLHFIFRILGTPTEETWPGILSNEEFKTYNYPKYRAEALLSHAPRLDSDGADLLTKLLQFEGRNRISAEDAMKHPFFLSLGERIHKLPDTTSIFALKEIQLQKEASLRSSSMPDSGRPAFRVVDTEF
Sequence of Cyclin-G-associated kinase (Homo sapiens) (O14976 whole entry): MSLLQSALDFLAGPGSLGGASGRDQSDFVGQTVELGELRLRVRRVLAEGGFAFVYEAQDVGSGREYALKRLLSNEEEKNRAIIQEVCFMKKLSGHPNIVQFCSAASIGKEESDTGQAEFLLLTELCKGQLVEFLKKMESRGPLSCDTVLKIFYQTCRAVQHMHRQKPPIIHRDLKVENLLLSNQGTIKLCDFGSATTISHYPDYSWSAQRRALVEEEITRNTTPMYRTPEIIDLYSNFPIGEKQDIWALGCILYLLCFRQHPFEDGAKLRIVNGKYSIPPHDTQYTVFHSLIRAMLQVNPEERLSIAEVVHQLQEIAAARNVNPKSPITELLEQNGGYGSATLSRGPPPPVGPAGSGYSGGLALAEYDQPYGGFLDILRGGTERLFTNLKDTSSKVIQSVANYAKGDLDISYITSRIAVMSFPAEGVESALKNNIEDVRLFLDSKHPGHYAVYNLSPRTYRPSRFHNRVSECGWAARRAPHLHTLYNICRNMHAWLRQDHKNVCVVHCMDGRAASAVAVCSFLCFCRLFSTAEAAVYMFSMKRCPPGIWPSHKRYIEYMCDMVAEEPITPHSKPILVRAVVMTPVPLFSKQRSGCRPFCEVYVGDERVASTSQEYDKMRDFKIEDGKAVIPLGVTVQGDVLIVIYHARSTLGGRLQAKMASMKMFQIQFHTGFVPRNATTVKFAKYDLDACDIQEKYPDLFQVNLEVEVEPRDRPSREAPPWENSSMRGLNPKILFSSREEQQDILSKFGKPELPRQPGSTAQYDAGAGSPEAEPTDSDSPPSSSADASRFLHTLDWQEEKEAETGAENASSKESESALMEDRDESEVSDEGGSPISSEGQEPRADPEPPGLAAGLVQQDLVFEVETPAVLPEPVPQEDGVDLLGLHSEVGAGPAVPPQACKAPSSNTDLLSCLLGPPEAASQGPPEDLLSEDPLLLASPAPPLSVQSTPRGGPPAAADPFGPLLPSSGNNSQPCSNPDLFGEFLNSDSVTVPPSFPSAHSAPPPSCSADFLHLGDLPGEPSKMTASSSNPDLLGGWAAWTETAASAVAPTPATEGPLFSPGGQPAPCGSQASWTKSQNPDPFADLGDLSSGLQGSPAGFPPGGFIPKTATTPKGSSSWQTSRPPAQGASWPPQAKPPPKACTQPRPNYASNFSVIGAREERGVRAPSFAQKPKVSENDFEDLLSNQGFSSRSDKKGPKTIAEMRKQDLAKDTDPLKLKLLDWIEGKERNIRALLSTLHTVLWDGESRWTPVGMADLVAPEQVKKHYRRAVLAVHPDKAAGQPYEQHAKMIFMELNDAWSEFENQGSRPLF
Sequence of Cyclin-dependent kinase 11B (Homo sapiens) (P21127 whole entry, the tested form may be a part): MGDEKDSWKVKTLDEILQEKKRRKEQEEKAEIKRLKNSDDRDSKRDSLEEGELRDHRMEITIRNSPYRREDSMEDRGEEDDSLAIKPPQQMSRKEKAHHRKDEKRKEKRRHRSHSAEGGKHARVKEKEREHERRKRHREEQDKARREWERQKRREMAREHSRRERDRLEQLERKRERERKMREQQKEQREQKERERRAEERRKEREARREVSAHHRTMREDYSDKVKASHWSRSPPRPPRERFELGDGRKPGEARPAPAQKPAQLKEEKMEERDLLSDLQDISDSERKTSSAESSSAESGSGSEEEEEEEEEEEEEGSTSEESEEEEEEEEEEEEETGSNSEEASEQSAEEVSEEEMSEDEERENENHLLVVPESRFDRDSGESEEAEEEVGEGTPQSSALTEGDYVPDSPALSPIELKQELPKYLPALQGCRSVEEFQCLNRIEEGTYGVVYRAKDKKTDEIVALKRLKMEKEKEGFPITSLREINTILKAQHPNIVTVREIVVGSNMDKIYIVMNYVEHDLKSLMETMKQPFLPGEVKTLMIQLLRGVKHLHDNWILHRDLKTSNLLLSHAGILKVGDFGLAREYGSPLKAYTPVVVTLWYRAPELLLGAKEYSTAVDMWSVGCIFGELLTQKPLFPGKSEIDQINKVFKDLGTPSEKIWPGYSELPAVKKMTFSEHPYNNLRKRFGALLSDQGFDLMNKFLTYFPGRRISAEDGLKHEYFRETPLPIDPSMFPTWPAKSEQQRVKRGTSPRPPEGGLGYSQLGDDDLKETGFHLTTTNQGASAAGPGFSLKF
Sequence of Dual specificity protein kinase CLK4 (Homo sapiens) (Q9HAZ1 whole entry, looked up): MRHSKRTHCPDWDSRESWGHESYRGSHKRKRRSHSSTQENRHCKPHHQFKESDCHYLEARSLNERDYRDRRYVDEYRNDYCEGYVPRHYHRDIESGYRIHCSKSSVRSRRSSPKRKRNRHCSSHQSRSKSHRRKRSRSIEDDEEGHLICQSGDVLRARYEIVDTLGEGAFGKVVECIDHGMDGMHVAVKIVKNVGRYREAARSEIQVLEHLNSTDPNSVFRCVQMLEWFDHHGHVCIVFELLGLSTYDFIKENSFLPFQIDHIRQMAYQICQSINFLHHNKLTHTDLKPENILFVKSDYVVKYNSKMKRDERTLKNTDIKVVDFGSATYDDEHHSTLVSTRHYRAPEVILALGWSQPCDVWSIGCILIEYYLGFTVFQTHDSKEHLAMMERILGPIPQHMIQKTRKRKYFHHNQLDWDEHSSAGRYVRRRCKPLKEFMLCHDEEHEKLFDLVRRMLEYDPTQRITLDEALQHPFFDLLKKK
Sequence of Receptor tyrosine-protein kinase erbB-3 (Homo sapiens) (P21860 whole entry): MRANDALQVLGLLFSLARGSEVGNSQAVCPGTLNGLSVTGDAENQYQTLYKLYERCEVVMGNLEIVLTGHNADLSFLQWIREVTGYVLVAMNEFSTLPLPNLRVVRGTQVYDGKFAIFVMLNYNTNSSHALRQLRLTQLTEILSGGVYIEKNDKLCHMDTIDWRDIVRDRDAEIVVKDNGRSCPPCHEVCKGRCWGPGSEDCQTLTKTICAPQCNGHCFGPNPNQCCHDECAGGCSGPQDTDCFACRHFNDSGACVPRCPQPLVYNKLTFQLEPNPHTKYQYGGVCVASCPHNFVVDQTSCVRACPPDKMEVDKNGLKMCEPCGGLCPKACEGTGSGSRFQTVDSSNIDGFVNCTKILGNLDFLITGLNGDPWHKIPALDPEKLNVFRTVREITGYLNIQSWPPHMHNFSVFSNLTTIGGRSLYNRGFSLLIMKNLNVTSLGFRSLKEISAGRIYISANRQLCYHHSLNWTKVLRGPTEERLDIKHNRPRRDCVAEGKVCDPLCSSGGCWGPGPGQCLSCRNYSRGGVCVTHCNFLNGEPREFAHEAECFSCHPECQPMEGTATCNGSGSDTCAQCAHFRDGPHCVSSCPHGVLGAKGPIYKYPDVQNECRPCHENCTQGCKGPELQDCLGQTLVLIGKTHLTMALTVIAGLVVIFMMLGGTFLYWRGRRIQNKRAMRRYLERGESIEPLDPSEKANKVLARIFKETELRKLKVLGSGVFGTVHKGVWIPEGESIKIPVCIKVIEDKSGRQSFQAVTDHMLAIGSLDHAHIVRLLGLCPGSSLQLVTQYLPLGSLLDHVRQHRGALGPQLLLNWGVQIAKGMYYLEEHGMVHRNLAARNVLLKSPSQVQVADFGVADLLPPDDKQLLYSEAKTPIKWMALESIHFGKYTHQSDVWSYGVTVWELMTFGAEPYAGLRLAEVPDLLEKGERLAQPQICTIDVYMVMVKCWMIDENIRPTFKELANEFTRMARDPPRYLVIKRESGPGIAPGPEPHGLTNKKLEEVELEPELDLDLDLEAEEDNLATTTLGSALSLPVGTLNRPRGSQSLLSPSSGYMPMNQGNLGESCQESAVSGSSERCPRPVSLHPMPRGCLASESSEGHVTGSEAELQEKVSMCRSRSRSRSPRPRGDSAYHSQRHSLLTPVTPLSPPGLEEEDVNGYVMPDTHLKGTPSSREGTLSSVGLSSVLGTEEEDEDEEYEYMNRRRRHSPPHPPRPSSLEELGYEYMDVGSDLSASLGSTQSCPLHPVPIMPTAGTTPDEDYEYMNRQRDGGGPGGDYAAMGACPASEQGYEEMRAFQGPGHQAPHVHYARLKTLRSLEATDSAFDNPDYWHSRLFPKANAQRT
Sequence of Mitogen-activated protein kinase 3 (Homo sapiens) (P27361 whole entry): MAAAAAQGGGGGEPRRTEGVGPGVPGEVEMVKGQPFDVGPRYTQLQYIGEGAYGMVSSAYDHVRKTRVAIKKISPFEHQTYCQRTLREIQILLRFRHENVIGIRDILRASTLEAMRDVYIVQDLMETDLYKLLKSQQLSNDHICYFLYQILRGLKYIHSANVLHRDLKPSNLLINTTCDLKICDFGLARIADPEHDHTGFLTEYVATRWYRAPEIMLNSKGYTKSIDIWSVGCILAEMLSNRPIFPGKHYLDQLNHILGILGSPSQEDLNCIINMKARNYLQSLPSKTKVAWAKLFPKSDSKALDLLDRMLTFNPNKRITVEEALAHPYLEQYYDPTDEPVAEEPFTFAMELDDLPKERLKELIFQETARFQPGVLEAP

CS(=O)(=O)N1CCCC(NC(=O)[C@H](CCC2CCCCC2)NC(=O)c2ccc(CNc3ncnc4c3nnn4-c3ccccc3)cc2)C1 (stereo not given in full) [SR-301]
residual activity [1]: 100%
residual activity [2]: 85%
residual activity [3]: 100%
residual activity [4]: 100%
residual activity [5]: 100%
residual activity [6]: 100%
residual activity [7]: 100%
residual activity [8]: 100%
residual activity [9]: 98%
residual activity [10]: 100%
residual activity [11]: 60%
residual activity [12]: 88%
residual activity [13]: 89%
residual activity [14]: 92%
residual activity [15]: 87%
residual activity [16]: 100%
residual activity [17]: 63%
residual activity [18]: 100%
residual activity [19]: 100%
residual activity [20]: 100%
residual activity [21]: 100%
residual activity [22]: 96%
residual activity [23]: 91%
residual activity [24]: 100%
residual activity [25]: 80%
residual activity [26]: 91%
residual activity [27]: 86%
residual activity [28]: 85%
residual activity [29]: 99%
residual activity [30]: 95%
residual activity [31]: 100%
residual activity [32]: 100%
residual activity [33]: 100%
residual activity [34]: 94%
residual activity [35]: 92%
residual activity [36]: 81%
residual activity [37]: 95%
residual activity [38]: 100%
residual activity [39]: 100%
residual activity [40]: 91%
residual activity [41]: 96%
residual activity [42]: 100%
residual activity [43]: 100%
residual activity [44]: 90%
residual activity [45]: 86%

CS(=O)(=O)N1CCCC(NC(=O)[C@H](CCC2CCCCC2)NC(=O)c2ccc(CNC(=O)c3cnc4ccccn34)cc2)C1 (stereo not given in full) [SR-302]
residual activity [1]: 51%
residual activity [2]: 100%
residual activity [3]: 85%
residual activity [4]: 94%
residual activity [5]: 0%
residual activity [6]: 100%
residual activity [7]: 100%
residual activity [8]: 100%
residual activity [9]: 99%
residual activity [10]: 88%
residual activity [11]: 77%
residual activity [12]: 100%
residual activity [13]: 67%
residual activity [14]: 100%
residual activity [15]: 74%
residual activity [16]: 100%
residual activity [17]: 83%
residual activity [18]: 100%
residual activity [19]: 65%
residual activity [20]: 100%
residual activity [21]: 94%
residual activity [22]: 84%
residual activity [23]: 100%
residual activity [24]: 99%
residual activity [25]: 100%
residual activity [26]: 100%
residual activity [27]: 100%
residual activity [28]: 98%
residual activity [29]: 100%
residual activity [30]: 88%
residual activity [31]: 100%
residual activity [32]: 98%
residual activity [33]: 83%
residual activity [34]: 100%
residual activity [35]: 100%
residual activity [36]: 47%
residual activity [37]: 96%
residual activity [38]: 100%
residual activity [39]: 100%
residual activity [40]: 99%
residual activity [41]: 100%
residual activity [42]: 86%
residual activity [43]: 100%
residual activity [44]: 100%
residual activity [45]: 80%
